Source: patent US8642594B2, “Substituted thieno[2,3-d]pyrimidines as HSP90 inhibitors” (Vernalis (R&D) Limited, priority 2003, dated 2014)

Target: T1, Human full-length Hsp90 (Homo sapiens, UniProt P08238)
T1 construct: E. coli expressed human full-length HSP90 protein, purified >95%; made in house; host or cells: E. coli
Experiment: Fluorescence polarization assay (competitive binding to HSP90, probe RBT0045864-FAM)
Settings: not given
Procedure: Fluorescence Polarization Assay
Fluorescence polarization {also known as fluorescence anisotropy} measures the rotation of a fluorescing species in solution, where the larger molecule the more polarized the fluorescence emission. When the fluorophore is excited with polarized light, the emitted light is also polarized. The molecular size is proportional to the polarization of the fluorescence emission.
The fluoroscein-labelled probe—RBT0045864-FAM—
Test compound is added to the assay plate, left to equilibrate and the anisotropy measured again. Any change in anisotropy is due to competitive binding of compound to HSP90, thereby releasing probe.
Stored at room temperature. • 3) BSA (bovine serum albumen) 10 mg/ml (New England Biolabs #B9001S) • 4) 20 mM probe in 100% DMSO stock concentration. Stored in the dark at RT. Working concentration is 200 nM diluted in AR water and stored at 4° C. […] Protocol • 1) Add 100 μl 1× buffer to wells 11A and 12A (=FP BLNK) • 2) Prepare assay mix—all reagents are kept on ice with a lid on the bucket as the probe is light-sensitive.
This gives 2.5 mM {50×} stock cpd—assuming cpds 20 mM. • 4) Repeat for wells A2 to A10. Control in columns 11 and 12. • 5) Transfer 5 μl from row A to row B—not column 12. Mix well. • 6) Transfer 5 μl from row B to row C. […] Add 2 μl of 100 mM standard cpd to wells B12-H12 {is positive control} • 13) The Z′ factor is calculated from zero controls and positive wells.

T1 sequence (P08238 whole entry): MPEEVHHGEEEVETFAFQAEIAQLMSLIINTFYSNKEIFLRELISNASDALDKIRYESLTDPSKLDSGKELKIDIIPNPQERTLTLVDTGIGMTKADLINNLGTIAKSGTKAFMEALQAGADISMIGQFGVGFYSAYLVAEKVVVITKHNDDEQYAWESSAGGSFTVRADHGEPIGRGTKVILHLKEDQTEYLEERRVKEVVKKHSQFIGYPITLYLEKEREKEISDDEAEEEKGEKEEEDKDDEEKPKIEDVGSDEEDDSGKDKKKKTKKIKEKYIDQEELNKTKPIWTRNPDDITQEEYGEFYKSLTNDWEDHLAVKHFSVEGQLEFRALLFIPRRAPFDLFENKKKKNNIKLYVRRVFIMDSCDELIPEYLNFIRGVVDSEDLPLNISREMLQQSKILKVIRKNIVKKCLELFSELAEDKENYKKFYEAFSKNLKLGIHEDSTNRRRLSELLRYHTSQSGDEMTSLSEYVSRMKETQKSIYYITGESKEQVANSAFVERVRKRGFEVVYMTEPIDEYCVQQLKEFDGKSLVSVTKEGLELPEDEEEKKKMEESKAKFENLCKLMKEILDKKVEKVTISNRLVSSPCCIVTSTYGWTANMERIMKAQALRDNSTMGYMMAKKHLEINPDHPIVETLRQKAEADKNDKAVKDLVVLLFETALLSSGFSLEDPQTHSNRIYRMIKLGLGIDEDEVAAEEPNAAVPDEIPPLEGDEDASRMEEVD

`CCNC(=O)c1cc2c(-c3cc(OCCN4CCN(C)CC4)c(Cl)cc3Cl)nc(N)nc2s1` [Example 246] and `CCN(CC)CCOc1cc(-c2nc(N)nc3sc(C(=O)NC4CC4)cc23)c(Cl)cc1Cl` [Example 251] cannot be ordered by IC50: < 10 µM for the first, < 10 µM for the second.

`CCNC(=O)c1cc2c(-c3ccc(Cl)cc3)nc(N)nc2s1` [Example 173] and `CCNC(=O)c1cc2c(-c3ccc(C)cc3C)nc(N)nc2s1` [Example 80] cannot be ordered by IC50: < 10 µM for the first, < 10 µM for the second.

`CCNC(=O)c1cc2c(-c3ccc(C#N)cc3C)nc(N)nc2s1` [Example 84] was tested, and the IC50 was < 10 µM.

Same assay, conditions: fluorescence polarization assay, activity range; read-out: Hsp90 FP IC50

`CCOC(=O)c1cc2c(C(=O)c3ccc(OC)c(OC)c3)nc(N)nc2s1` [Example 310] and `CCOC(=O)c1cc2c(C(=O)c3cccc(Cl)c3)nc(N)nc2s1` [Example 304] cannot be ordered by IC50: < 10 µM for the first, < 10 µM for the second.

`CCN(CC)CCOc1cc(-c2nc(N)nc3sc(C(=O)NC(C)C)cc23)c(Cl)cc1Cl` [Example 237, 2-Amino-4-[2,4-dichloro-5-(2-diethylamino-ethoxy)-phenyl]-thieno[2,3-d]pyrimidine-6-carboxylic acid isopropyl amide] and `CCN(CC)CCOc1cc(-c2nc(N)nc3sc(C(=O)NC(C)(C)C)cc23)c(Cl)cc1Cl` [Example 265] cannot be ordered by IC50: < 10 µM for the first, < 10 µM for the second.

`CCNC(=O)c1cc2c(-c3cc(OCCN4CCCCC4)c(Cl)cc3Cl)nc(N)nc2s1` [Example 238] and `CCNC(=O)c1cc2c(-c3cc(OCCN4CCOCC4)c(Cl)cc3Cl)nc(N)nc2s1` [Example 236, 2-Amino-4-[2,4-dichloro-5-(2-morpholin-4-yl-ethoxy)-phenyl]-thieno[2,3-d]pyrimidine-6-carboxylic acid ethyl amide] cannot be ordered by IC50: < 10 µM for the first, < 10 µM for the second.

`CS(=O)(=O)c1ccc(CNC(=O)c2cc3c(-c4ccc(Cl)cc4Cl)nc(N)nc3s2)cc1` [Example 117] and `Nc1nc(-c2ccc(Cl)cc2Cl)c2cc(C(=O)NCc3ccc(S(N)(=O)=O)cc3)sc2n1` [Example 116] cannot be ordered by IC50: < 10 µM for the first, < 10 µM for the second.

`Nc1nc(-c2ccc(Cl)cc2Cl)c2cc(C(=O)N3CCC(N)C3)sc2n1` (centres unmarked) [Example 159] and `CN1CCC(NC(=O)c2cc3c(-c4ccc(Cl)cc4Cl)nc(N)nc3s2)CC1` [Example 137] cannot be ordered by IC50: < 10 µM for the first, < 10 µM for the second.

`CCOC(=O)c1cc2c(C(=O)c3ccc4c(c3)OCO4)nc(N)nc2s1` [Example 298] and `CCOC(=O)c1cc2c(C(C)(O)c3ccc4c(c3)OCO4)nc(N)nc2s1` (centres unmarked) [Example 315, 2-Amino-4-(1-benzo[1,3]dioxol-5-yl-1-hydroxy-ethyl)-thieno[2,3-d]pyrimidine-6-carboxylic acid ethyl ester] cannot be ordered by IC50: < 10 µM for the first, < 10 µM for the second.

`CCOC(=O)c1cc2c(NC(c3ccccc3)c3ccccc3)nc(N)nc2s1` [Example 25] and `CCOC(=O)c1cc2c(NC(C)c3ccccc3)nc(N)nc2s1` (centres unmarked) [Example 26] cannot be ordered by IC50: > 10 µM for the first, > 10 µM for the second.

`C[C@H](NC(=O)c1cc2c(-c3ccc(Cl)cc3Cl)nc(N)nc2s1)C(N)=O` [Example 160] and `Nc1nc(-c2ccc(Cl)cc2Cl)c2cc(C(=O)NC(CO)CO)sc2n1` [Example 127] cannot be ordered by IC50: < 10 µM for the first, < 10 µM for the second.

`Nc1nc(-c2ccccc2)c2cc(C(=O)NCCO)sc2n1` [Example 72] and `Nc1nc(-c2ccccc2)c2cc(C(=O)NCCCO)sc2n1` [Example 53] cannot be ordered by IC50: < 10 µM for the first, < 10 µM for the second.

`CCNC(=O)c1cc2c(-c3cc(CNCCc4ccccc4)ccc3C)nc(N)nc2s1` [Example 215] and `CCNC(=O)c1cc2c(-c3cc(CNCc4ccccc4)c(C)cc3C)nc(N)nc2s1` [Example 232] cannot be ordered by IC50: < 10 µM for the first, < 10 µM for the second.

`CNC(=O)c1cc2c(Nc3ccccc3)nc(N)nc2s1` [Example 64] and `CCOC(=O)c1cc2c(Nc3ccccc3)nc(N)nc2s1` [Example 28] cannot be ordered by IC50: > 10 µM for the first, > 10 µM for the second.

`C[C@H](NC(=O)c1cc2c(-c3ccc(Cl)cc3Cl)nc(N)nc2s1)c1ccccc1` [Example 139] and `Nc1nc(-c2ccc(Cl)cc2Cl)c2cc(C(=O)NCc3ccccn3)sc2n1` [Example 154] cannot be ordered by IC50: < 10 µM for the first, < 10 µM for the second.

First: CCOC(=O)c1cc2c(-c3ccc(OCCN(CC)CC)cc3C)nc(N)nc2s1 [Example 190]
Second: CCOC(=O)c1cc2c(-c3ccc(OCCCO)cc3C)nc(N)nc2s1 [Example 194]
The IC50 of the first is higher: > 10 µM for the first, < 10 µM for the second. The second is the more potent here.

`CCOC(=O)c1cc2c(-c3ccsc3)nc(N)nc2s1` [Example 18] and `CCOC(=O)c1cc2c(-c3ccc(F)cc3)nc(N)nc2s1` [Example 10] cannot be ordered by IC50: > 10 µM for the first, > 10 µM for the second.

`Cc1ccc(-c2nc(N)nc3sc(C(=O)NCCc4c[nH]cn4)cc23)c(C)c1` [Example 86] and `CCNC(=O)c1cc2c(-c3cc(C=O)ccc3C)nc(N)nc2s1` [Example 170] cannot be ordered by IC50: < 10 µM for the first, < 10 µM for the second.

`CCNC(=O)c1ccc(C)c(-c2nc(N)nc3sc(C(=O)NCC)cc23)c1` [Example 180] and `CCCNC(=O)c1ccc(C)c(-c2nc(N)nc3sc(C(=O)NC4CC4)cc23)c1` [Example 183] cannot be ordered by IC50: < 10 µM for the first, < 10 µM for the second.

`Nc1nc(-c2ccccc2)c2cc(C(=O)NCCN3CCOCC3)sc2n1` [Example 46] and `CCCCNC(=O)c1cc2c(-c3ccccc3)nc(N)nc2s1` [Example 48] cannot be ordered by IC50: > 10 µM for the first, > 10 µM for the second.

`CCOC(=O)c1cc2c(-c3ccc(C#N)cc3C)nc(N)nc2s1` [Example 32] and `CCOC(=O)c1cc2c(-c3ccc(C#N)cc3Cl)nc(N)nc2s1` [Example 148] cannot be ordered by IC50: < 10 µM for the first, < 10 µM for the second.

`CCOC(=O)c1cc2c(-c3cc(C)c(Br)cc3C)nc(N)nc2s1` [Example 105] and `CCNC(=O)c1cc2c(-c3cc(C)c(Br)cc3C)nc(N)nc2s1` [Example 149] cannot be ordered by IC50: < 10 µM for the first, < 10 µM for the second.

`CCOC(=O)c1cc2c(-c3cccc(C)c3C)nc(N)nc2s1` [Example 87] and `CCOC(=O)c1cc2c(C(=O)c3cccc(C)c3C)nc(N)nc2s1` [Example 307] cannot be ordered by IC50: < 10 µM for the first, < 10 µM for the second.

`CCNC(=O)c1cc2c(-c3ccc(CC)cc3Cl)nc(N)nc2s1` [Example 177] and `CCNC(=O)c1cc2c(-c3cc(O)c(Cl)cc3Cl)nc(N)nc2s1` [Example 240] cannot be ordered by IC50: < 10 µM for the first, < 10 µM for the second.

Going from `CCOC(=O)c1cc2c(-c3ccc(CO)cc3)nc(N)nc2s1` [Example 35] to `CCOC(=O)c1cc2c(-c3cc(Cl)ccc3Cl)nc(N)nc2s1` [Example 106], the IC50 rises from < 10 µM to > 10 µM.

`CCOC(=O)CSc1nc(N)nc2sc(C(=O)OCC)cc12` [Example 20] and `CC=Cc1nc(N)nc2sc(C(=O)OCC)cc12` [Example 291] cannot be ordered by IC50: > 10 µM for the first, > 10 µM for the second.

`CCNC(=O)c1cc2c(-c3cc(OCC4CCCO4)c(Cl)cc3Cl)nc(N)nc2s1` (centres unmarked) [Example 262] and `CCNC(=O)c1cc2c(-c3cc(OCC(=O)N4CCOCC4)c(Cl)cc3Cl)nc(N)nc2s1` [Example 271] cannot be ordered by IC50: < 10 µM for the first, < 10 µM for the second.

First: Nc1nc(-c2ccccc2)c2cc(C(=O)Nc3ccccc3)sc2n1 [Example 60]
Second: CCNC(=O)c1cc2c(-c3cccc(OCc4ccccc4)c3)nc(N)nc2s1 [Example 243]
The IC50 of the first is higher: > 10 µM for the first, < 10 µM for the second. The second is the more potent here.

`Cc1c(C(N)=O)sc2nc(N)nc(-c3ccccc3)c12` [Example 75, 2-Amino-5-methyl-4-phenyl-thieno[2,3-d]pyrimidine-6-carboxylic acid amide] and `CCOC(=O)c1cc2c(Oc3ccccc3)nc(N)nc2s1` [Example 19] cannot be ordered by IC50: > 10 µM for the first, > 10 µM for the second.

Compared with `CCOC(=O)c1cc2c(-c3ccc(OCc4ccccc4)cc3C)nc(N)nc2s1` [Example 90], `CC(C)NC(=O)c1cc2c(-c3cc(OCc4ccccc4)c(Cl)cc3Cl)nc(N)nc2s1` [Example 242] is lower in IC50: > 10 µM for the first, < 10 µM for the second.

`C=C(c1ccc(F)cc1)c1nc(N)nc2sc(C(=O)OCC)cc12` [Example 277] and `CCOC(=O)c1cc2c(C(=O)c3ccccc3)nc(N)nc2s1` [Example 296] cannot be ordered by IC50: < 10 µM for the first, < 10 µM for the second.

`CCCNCc1cc(-c2nc(N)nc3sc(C(=O)NCC)cc23)c(C)cc1C` [Example 231] and `CCNC(=O)c1cc2c(-c3cc(CNCCO)c(C)cc3C)nc(N)nc2s1` [Example 234] cannot be ordered by IC50: < 10 µM for the first, < 10 µM for the second.

`CNC(=O)c1cc2c(Oc3ccccc3)nc(N)nc2s1` [Example 27] and `CCOC(=O)c1cc2c(-c3csc4ccccc34)nc(N)nc2s1` [Example 290] cannot be ordered by IC50: > 10 µM for the first, > 10 µM for the second.

`CCOC(=O)c1cc2c(C(=O)c3cc(C)ccc3C)nc(N)nc2s1` [Example 299] and `CCOC(=O)c1cc2c(C(=O)c3cc(C)cc(C)c3)nc(N)nc2s1` [Example 300] cannot be ordered by IC50: < 10 µM for the first, < 10 µM for the second.

`Nc1nc(-c2ccc(Cl)cc2Cl)c2cc(C(=O)NCCCn3ccnc3)sc2n1` [Example 146] and `Nc1nc(-c2ccc(Cl)cc2Cl)c2cc(C(=O)Nc3ccc(S(=O)(=O)O)cc3)sc2n1` [Example 112] cannot be ordered by IC50: < 10 µM for the first, < 10 µM for the second.

`CCNC(=O)c1cc2c(-c3cccc(OCCN(CC)CC)c3)nc(N)nc2s1` [Example 260] and `CCNC(=O)c1cc2c(-c3cc(CNC4CC4)ccc3C)nc(N)nc2s1` [Example 203] cannot be ordered by IC50: < 10 µM for the first, < 10 µM for the second.

Compared with `CCOC(=O)c1cc2c(NC3CCCCC3)nc(N)nc2s1` [Example 24], `CCOC(=O)c1cc2c(/C=C/c3ccc(Cl)cc3)nc(N)nc2s1` [Example 281] is lower in IC50: > 10 µM for the first, < 10 µM for the second.

In the case of `CCOC(=O)c1cc2c(-c3cc(CNCCN4CCOCC4)ccc3C)nc(N)nc2s1` [Example 198], the IC50 is reported as < 10 µM.
